Tests used:
Format in all cases: in vivo
Maize (Zea mays) = assay: Soil incorporation (attaclay/sand dust), growth regulatory or herbicidal effects, maize; conditions: 504 h, soil incorporation 130 ppm, 21 days, 0=no effect, 100=complete kill/suppression, read-out: growth regulatory or herbicidal effect score
Source text: (§1) The compounds listed below were each formulated as an attaclay/sand dust and incorporated into John Innes I potting compost at a rate equivalent to 26 parts per million weight/volume of active ingredient to soil and placed in anodised aluminium pans, 19 cm long×9.5 cm wide×5.0 cm deep. This rate is approximately equivalent to a soil surface application of 11.2 kg active ingredient/hectare cultivated to a depth of 5 cm. Seeds of the species listed below were sown in the treated soil, watered and placed in a controlled environment room (22° C.; 65-85% relative humidity; 14 hours per day artificial illumination at 13,000 lux) for 21 days. The plants were then visually assessed for any growth regulatory or herbicidal effects. All differences from an untreated control were scored on a scale from 0-100, where 0 signifies no effect and 100 signifies complete kill.
(§2) The compounds listed below were tested according to the procedure of Examples 56-60 but at 130 parts per million weight/volume of active ingredient to soil. This rate is approximately equivalent to a soil surface application of 56 kg active ingredient per hectare cultivated to a depth of 5 cm.
(§3) The product of Example 95 was tested according to the procedure of Examples 56-60 but at 130 and 26 parts per million weight/volume. The results were as follows:
(§4) N-(2-oxopropyl)-2'-chloro-6'-methyl-methanesulphonanilide, formulated as an attaclay/sand dust, was incorporated in John Innes I potting compost at a rate equivalent to 130 parts per million weight/volume of active ingredient to soil and placed in anodised aluminium pans, 19 cm long×9.5 cm wide×5.0 cm deep. These rates are approximately equivalent to a soil surface application of 56 kg active ingredient per hectare cultivated to a depth of 5 cm. Seeds of Peas, Mustard, Linseed, Maize, Oats and Ryegrass were sown in the treated soil, watered and placed in a controlled environment room (22° C.; 65-85% relative humidity; 14 hours artificial illumination at 13000 lux) for 21 days.
(§5) The plants were then visually assessed for any growth regulatory or herbicidal effects. All differences from an untreated control were scored on a scale from 0-100, where 0 signifies no effect and 100 signifies complete suppression.

Oats (Avena sativa) = assay: Soil incorporation (attaclay/sand dust), growth regulatory or herbicidal effects, oats; conditions: 504 h, soil incorporation 130 ppm, 21 days, 0=no effect, 100=complete kill/suppression, read-out: growth regulatory or herbicidal effect score
Source text: as §1, §2, §3, §4, §5

[1] = tested on: Linseed (Linum usitatissimum); assay: Soil incorporation (attaclay/sand dust), growth regulatory or herbicidal effects, linseed; conditions: 504 h, soil incorporation 130 ppm, 21 days, 0=no effect, 100=complete kill/suppression, read-out: growth regulatory or herbicidal effect score
Source text: as §1, §2, §3, §4, §5

Peas (Pisum sativum) = assay: Soil incorporation (attaclay/sand dust), growth regulatory or herbicidal effects, peas; conditions: Lathyrus oleraceus, 504 h, soil incorporation 130 ppm, 21 days, 0=no effect, 100=complete kill/suppression, read-out: growth regulatory or herbicidal effect score
Source text: as §1, §2, §3, §4, §5

[2] = tested on: Ryegrass (Lolium perenne); assay: Soil incorporation (attaclay/sand dust), growth regulatory or herbicidal effects, ryegrass; conditions: 504 h, soil incorporation 130 ppm, 21 days, 0=no effect, 100=complete kill/suppression, read-out: growth regulatory or herbicidal effect score
Source text: as §1, §2, §3, §4, §5

Mustard (Sinapis alba) = assay: Soil incorporation (attaclay/sand dust), growth regulatory or herbicidal effects, mustard; conditions: 504 h, soil incorporation 130 ppm, 21 days, 0=no effect, 100=complete kill/suppression, read-out: growth regulatory or herbicidal effect score
Source text: as §1, §2, §3, §4, §5

Row | Structure (SMILES) | plant injury at 130 µg/mL (Maize (Zea mays)) [%] | plant injury at 130 µg/mL (Oats (Avena sativa)) [%] | pest or weed control at 130 µg/mL [1] [%] | pest or weed control at 130 µg/mL (Peas (Pisum sativum)) [%] | pest or weed control at 130 µg/mL [2] [%] | pest or weed control at 130 µg/mL (Mustard (Sinapis alba)) [%]
1 | Cc1cccc(C)c1N([C@@H](C)C(=O)O)S(C)(=O)=O [Example 7, N-(2,6-dimethylphenyl)-N-methanesulphonyl alanine] | 30 | 30 | 50 | 20 | 0 | 70
2 | CC(=O)CN(c1c(C)cccc1Cl)S(C)(=O)=O [Example 210, N-2-oxopropyl-2'-chloro-6'-methyl-methanesulphonanilide] | 5 | 60 | 80 | 30 | 70 | 100
3 | CCOC(=O)CN(c1ccc(Cl)cc1)S(C)(=O)=O [Example 12] | 0 | 5 | 80 | 40 | 5 | 70
4 | CC(C)c1ccccc1N(CC#N)S(C)(=O)=O [Example 47] | 10 | 30 | 100 | 10 | 50 | 80
5 | CS(=O)(=O)N(CC#N)c1cccc(C(F)(F)F)c1 [Example 48] | 40 | 80 | 100 | 50 | 90 | 100
6 | CC(C(=O)O)N(c1ccc(Cl)c(Cl)c1)S(C)(=O)=O (stereo not drawn) [Example 4] | 70 | 40 | 90 | 70 | 0 | 70
7 | CCc1ccccc1N(C(C)C(=O)O)S(C)(=O)=O (stereo not drawn) [Example 5] | 30 | 30 | 70 | 30 | 20 | 50
8 | CS(=O)(=O)N(CC#N)c1ccc(Cl)cc1 [Example 45] | 30 | 70 | 90 | 20 | 80 | 100
9 | CCOC(=O)CN(c1c(C)cccc1C)S(C)(=O)=O [Example 14] | 40 | 20 | 90 | 30 | 30 | 100
10 | CCOC(=O)CN(c1ccc(Cl)c(Cl)c1)S(C)(=O)=O [Example 18] | 30 | 0 | 80 | 40 | 30 | 40
11 | CCN(CC)C(=O)CN(c1ccc(Cl)cc1)S(C)(=O)=O [Example 35] | 20 | 20 | 40 | 20 | 20 | 100
12 | CCOC(=O)CN(c1cccc(C(F)(F)F)c1)S(C)(=O)=O [Example 17] | 0 | 0 | 90 | 40 | 0 | 40
13 | CCN(CC)C(=O)CN(c1c(C)cccc1C)S(C)(=O)=O [Example 36] | 20 | 20 | 40 | 20 | 20 | 100

Reference: patent publication US4309559A, “Sulphonamides useful as pesticides” (FBC Limited, priority 1977, dated 1982)
